# Test results: patent publication US8809372B2, “Pyridine derivatives” (Endo Pharmaceuticals, Inc., priority 2011, dated 2014)
# What was measured:
# [1] = system: serum testosterone level; assay: In vivo inhibition of testosterone production; set-up: species or system rat; details: male rats, vs vehicle-dosed controls
# Method: In vivo Inhibition of Testosterone Production
# Male rats aged 8 to 10 weeks old were dosed orally with compounds at 10 or 30 mg/kg. Blood samples were drawn at 0.5, 3, 8, and 24 hours and were processed to plasma samples. Samples were analyzed for compound levels by LC-MS/MS method and for testosterone levels with an ELISA performed as per manufacturer's protocol (Parameter Testosterone Assay, Cat. No. KGE010, R&D systems; http://www.mdsystems.com/pdf/KGE010.pdf). The serum testosterone level was calculated from standards using GraphPad® Prism software and % inhibition at a given time was calculated by comparing the testosterone level in vehicle control animals at the same time of day.
# [2] = target: T1, human CYP17 in LNCap-CYP17 cells (Homo sapiens, UniProt P05093); assay: Cell-based human CYP17 inhibition assay, LNCap-CYP17 cells; details: 16 hours
# T1 construct: expressed in transfected cells
# T1 sequence (P05093 1-508): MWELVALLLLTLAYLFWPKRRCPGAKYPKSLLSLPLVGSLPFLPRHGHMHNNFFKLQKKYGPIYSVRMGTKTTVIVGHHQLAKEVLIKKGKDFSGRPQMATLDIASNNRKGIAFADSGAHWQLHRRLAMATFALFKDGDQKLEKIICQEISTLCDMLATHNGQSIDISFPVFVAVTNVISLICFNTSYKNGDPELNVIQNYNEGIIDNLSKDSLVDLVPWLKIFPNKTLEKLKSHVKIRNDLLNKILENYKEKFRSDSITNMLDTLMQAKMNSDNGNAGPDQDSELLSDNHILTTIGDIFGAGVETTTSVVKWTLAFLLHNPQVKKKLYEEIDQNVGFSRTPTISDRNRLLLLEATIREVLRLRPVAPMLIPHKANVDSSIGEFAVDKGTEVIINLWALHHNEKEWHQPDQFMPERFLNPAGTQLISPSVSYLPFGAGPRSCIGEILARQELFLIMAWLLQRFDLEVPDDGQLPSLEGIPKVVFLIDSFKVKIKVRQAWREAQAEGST
# Method: Cell-Based Human CYP17 Inhibition Assay
# 1. H295R Adrenocortical Carcinoma Cells and Growth Media: The media for the H295R Adrenocortical carcinoma cells [NCI-H295A, ATCC Number CRL-2128, American Type Culture Collection, Manassas, Va., US] (500 mL) was a DMEM:F12 Mix 1:1 with 5% (2 mL) BD Nu Serum; 1% (5 mL) ITS+Premix [BD Biosciences] and 1% Penstrep. 2. LNCap-CYP17 Cells and Growth Media: Full length hCYP17a1 gene (NCBI Reference Sequence: NM_000102.3) was cloned in pcDNA3.1(+) vector between HindIII and XhoI site. The pcDNA3.1(+) vector contains the Neomycin resistance gene and was used for selection of stable cell line. The hCYP17a1 containing pcDNA3.1(+) was transfected into LNCap cells to create the LNCap-CYP17 cell line. The media for the LNCaP-CYP17 cells was RPMI 1640, 10% FBS, 1% PenStrep, Geneticin 400 μg/mL.
# The H295R cells or LNCaP-hCYP17 cells were subcultured and 30,000 cells per well were seeded in a poly-d lysine plate and incubated overnight at 37° C. The next day the media was removed and 200 μL of fresh media with ^3H3-17α-hydroxy-pregnenolone (1:1000) was added. 50 μL of serially diluted compounds from a 5× plate (5 times the final desired concentration) was added. […]
# The plates were incubated overnight (16 hours) at 37° C. […] Following the incubation for 30 minutes, readings for the radiotracer were taken using a Microbeta® trilux.
# [3] = 3-8 hours after a 30 mg/kg oral dose
smiles,measurement,setting,value
"CC(O)(c1ccncc1)c1ncc(-c2ccc(F)cc2)s1 (centres unmarked) [Example 14, 1-(5-(4-Fluorophenyl)thiazol-2-yl)-1-(pyridin-4-yl)ethanol]",decrease of serum testosterone levels,[1]; [3],60-80%
"Cn1cc(-c2ccc(C(C)(O)c3ccncc3)s2)ccc1=O (single isomer, unassigned; (-)) [Example 17, (−)-5-(5-(1-hydroxy-1-(pyridin-4-yl)ethyl)thiophen-2-yl)-1-methylpyridin-2(1H)-one]",decrease of serum testosterone levels,[1]; [3],30-60%
"CC(O)(c1ccncc1)c1cnc(-c2ccc(F)cc2)s1 (racemic) [Example 7, 1-(2-(4-Fluorophenyl)thiazol-5-yl)-1-(pyridin-4-yl)ethanol]",melting point,,229 to 232 °C
same,decrease of serum testosterone levels,[1]; 3-8 hours after a 10 mg/kg oral dose,70-85%
"COc1ccc(-c2ccc(C(C)(O)c3ccncc3)nc2)cc1 (racemic) [Example 1, 1-(5-(4-Methoxyphenyl)pyridin-2-yl)-1-(pyridin-4-yl)ethanol]",IC50,[2],0.201 to 10 µM
